Key:
[1] = target: Lysine-specific histone demethylase 1A (Homo sapiens, UniProt O60341); assay: Inhibition of human recombinant LSD1 (852 residues) incubated for 1 hr by HTRF method
MV4-11 = assay: Antiproliferative activity against human MV4-11 cells assessed as inhibition of cell growth measured after 7 days by cell-titer glo assay; format: functional, cell-based; details: MV4-11, 168 h
HL-60 = assay: Antiproliferative activity against human HL-60 cells assessed as inhibition of cell growth measured after 7 days by cell-titer glo assay; format: functional, cell-based; details: HL-60, 168 h
THP-1 = assay: Antiproliferative activity against human THP-1 cells assessed as inhibition of cell growth measured after 7 days by cell-titer glo assay; format: functional, cell-based; details: THP-1, 168 h
[2] = target: Voltage-gated inwardly rectifying potassium channel KCNH2 (Homo sapiens, UniProt Q12809); assay: Inhibition of human ERG by whole cell patch clamp assay; format: toxicity
Voltage-gated inwardly rectifying potassium channel KCNH2, sequence (Q12809 whole entry): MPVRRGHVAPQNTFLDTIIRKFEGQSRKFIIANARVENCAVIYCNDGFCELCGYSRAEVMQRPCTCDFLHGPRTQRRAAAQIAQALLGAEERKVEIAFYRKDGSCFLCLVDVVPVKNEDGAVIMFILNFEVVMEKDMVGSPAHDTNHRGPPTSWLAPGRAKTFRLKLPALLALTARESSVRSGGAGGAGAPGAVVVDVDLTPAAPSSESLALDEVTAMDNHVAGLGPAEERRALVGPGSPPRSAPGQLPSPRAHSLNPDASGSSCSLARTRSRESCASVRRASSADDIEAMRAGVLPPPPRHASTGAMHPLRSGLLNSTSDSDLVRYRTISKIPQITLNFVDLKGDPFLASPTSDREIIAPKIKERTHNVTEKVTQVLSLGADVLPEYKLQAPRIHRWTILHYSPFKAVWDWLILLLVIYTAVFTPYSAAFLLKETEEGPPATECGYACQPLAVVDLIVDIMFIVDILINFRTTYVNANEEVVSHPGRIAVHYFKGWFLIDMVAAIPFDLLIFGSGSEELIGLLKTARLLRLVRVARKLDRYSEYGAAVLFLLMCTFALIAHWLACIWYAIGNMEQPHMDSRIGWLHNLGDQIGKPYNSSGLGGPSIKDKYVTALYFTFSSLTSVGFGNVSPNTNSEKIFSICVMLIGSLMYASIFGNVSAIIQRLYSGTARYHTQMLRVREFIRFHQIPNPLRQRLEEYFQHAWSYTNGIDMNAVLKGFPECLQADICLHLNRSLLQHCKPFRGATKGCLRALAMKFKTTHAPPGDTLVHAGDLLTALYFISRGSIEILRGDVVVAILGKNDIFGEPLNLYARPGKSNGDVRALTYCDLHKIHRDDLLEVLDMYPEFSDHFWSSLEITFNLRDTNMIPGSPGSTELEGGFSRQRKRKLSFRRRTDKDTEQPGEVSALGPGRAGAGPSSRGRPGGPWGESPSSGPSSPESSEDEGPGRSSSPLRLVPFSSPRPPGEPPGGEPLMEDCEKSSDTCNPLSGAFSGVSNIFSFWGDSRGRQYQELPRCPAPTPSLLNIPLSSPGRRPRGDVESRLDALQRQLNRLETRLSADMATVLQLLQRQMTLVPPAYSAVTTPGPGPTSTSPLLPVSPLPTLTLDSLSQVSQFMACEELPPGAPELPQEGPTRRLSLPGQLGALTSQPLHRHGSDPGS

SMILES | IC50 [1] | IC50 (MV4-11) | IC50 (HL-60) | IC50 (THP-1) | IC50 [2]
CC(=O)n1ncc2cc(-n3cc(CN[C@@H]4C[C@H]4c4ccc(F)c(F)c4)nn3)ccc21 | 0.0084 µM | 3.87 µM | 4.22 µM | 5.4 µM | 
Cc1cc2[nH]ncc2cc1-n1cc(CN[C@@H]2C[C@H]2c2ccc(F)c(F)c2)nn1 | 0.0111 µM | 6.28 µM | 4.11 µM | 5.7 µM | 
O=C(C1CCCC1)n1ncc2cc(-n3cc(CN[C@@H]4C[C@H]4c4ccc(F)c(F)c4)nn3)ccc21 | 0.012 µM | 8.25 µM | 3.44 µM | 8.37 µM | 
Fc1ccc([C@@H]2C[C@H]2NCc2cn(-c3n[nH]c4ccccc34)nn2)cc1F | 0.0051 µM | > 25 µM | > 25 µM | > 25 µM | 
CCS(=O)(=O)n1ncc2cc(-n3cc(CN[C@@H]4C[C@H]4c4ccc(F)c(F)c4)nn3)ccc21 | 0.00777 µM | 11.5 µM | 6.81 µM | 4.59 µM | 
Fc1ccc([C@@H]2C[C@H]2NCc2cn(-c3ccc4c(cnn4C4CCCC4)c3)nn2)cc1F | 0.00414 µM | 2.86 µM | 4.05 µM | 3.88 µM | 
Fc1ccc([C@@H]2C[C@H]2NCc2cn(-c3ccc4[nH]ncc4c3)nn2)cc1F |  |  |  |  | 0.61 µM
Fc1ccc([C@@H]2C[C@H]2NCc2cn(Cc3ccc4[nH]ncc4c3)nn2)cc1F | 0.0115 µM | 6.56 µM | 2.47 µM | 6.34 µM | 
CC(C)C(=O)n1ncc2cc(-n3cc(CN[C@@H]4C[C@H]4c4ccc(F)c(F)c4)nn3)ccc21 | 0.00997 µM | 3.89 µM | 3.42 µM | 3.59 µM | 
O=C(C1CCC1)n1ncc2cc(-n3cc(CN[C@@H]4C[C@H]4c4ccc(F)c(F)c4)nn3)ccc21 | 0.0155 µM | 5.51 µM | 6.12 µM | 10.9 µM | 
O=S(=O)(C1CC1)n1ncc2cc(-n3cc(CN[C@@H]4C[C@H]4c4ccc(F)c(F)c4)nn3)ccc21 | 0.0043 µM | 6.32 µM | 5.57 µM | 3.39 µM | 
CCC(=O)n1ncc2cc(-n3cc(CN[C@@H]4C[C@H]4c4ccc(F)c(F)c4)nn3)ccc21 | 0.0116 µM | 2.56 µM | 1.53 µM | 7.29 µM | 
O=C(Cc1ccccc1)n1ncc2cc(-n3cc(CN[C@@H]4C[C@H]4c4ccc(F)c(F)c4)nn3)ccc21 | 0.0156 µM | 7.84 µM | 2.83 µM | 8.32 µM | 
O=C(C1CC1)n1ncc2cc(-n3cc(CN[C@@H]4C[C@H]4c4ccc(F)c(F)c4)nn3)ccc21 | 0.0123 µM | 2.61 µM | 5.5 µM | 5.94 µM | 
O=C(c1ccccc1)n1ncc2cc(-n3cc(CN[C@@H]4C[C@H]4c4ccc(F)c(F)c4)nn3)ccc21 | 0.00755 µM | 6.3 µM | 2.81 µM | 12.9 µM | 
O=C(C1CCCCC1)n1ncc2cc(-n3cc(CN[C@@H]4C[C@H]4c4ccc(F)c(F)c4)nn3)ccc21 | 0.0159 µM | 9.67 µM | 3 µM | 5.57 µM | 
Fc1ccc([C@@H]2C[C@H]2NCc2cn(-c3ccc4c(cnn4CC(F)(F)F)c3)nn2)cc1F | 0.00159 µM | 10.9 µM | 1.86 µM | 5.01 µM | 
O=S(=O)(C1CCCCC1)n1ncc2cc(-n3cc(CN[C@@H]4C[C@H]4c4ccc(F)c(F)c4)nn3)ccc21 | 0.00482 µM | 4.33 µM | 1.88 µM | 2.41 µM | 

Continued by falling IC50 [1], values first:

IC50 [1] | IC50 (MV4-11) | IC50 (HL-60) | IC50 (THP-1) | SMILES | IC50 [2]
0.0579 µM |  |  |  | Fc1ccc([C@@H]2C[C@H]2NCc2cn(CCc3ccc4[nH]ncc4c3)nn2)cc1F | 
0.0209 µM |  |  |  | Fc1ccc([C@@H]2C[C@H]2NCc2cn(-c3cnc4[nH]ncc4c3)nn2)cc1F | 
0.0146 µM | 3.31 µM | 2.41 µM | 24.3 µM | CS(=O)(=O)n1ncc2cc(-n3cc(CN[C@@H]4C[C@H]4c4ccc(F)c(F)c4)nn3)ccc21 | 
0.0144 µM | > 25 µM | > 25 µM | 3.76 µM | Fc1ccc([C@@H]2C[C@H]2NCc2cn(-c3ccc4cn[nH]c4c3)nn2)cc1F | 
0.00828 µM | 4.08 µM | 3.83 µM | 1.67 µM | Fc1ccc([C@@H]2C[C@H]2NCc2cn(-c3ccc4c(cnn4Cc4ccccc4)c3)nn2)cc1F | 
0.00663 µM | 12.5 µM | 15.5 µM | 3.95 µM | Fc1ccc([C@@H]2C[C@H]2NCc2cn(-c3cccc4[nH]ncc34)nn2)cc1F | 
0.00645 µM | 6.86 µM | 7.44 µM | 7.5 µM | Fc1ccc([C@@H]2C[C@H]2NCc2cn(-c3cc4cn[nH]c4cc3F)nn2)cc1F | 
0.00462 µM | 17.1 µM | 2.49 µM | 4.52 µM | Cn1ncc2cc(-n3cc(CN[C@@H]4C[C@H]4c4ccc(F)c(F)c4)nn3)ccc21 | 
0.0038 µM | 3.52 µM | 7.83 µM | 6.52 µM | CCn1ncc2cc(-n3cc(CN[C@@H]4C[C@H]4c4ccc(F)c(F)c4)nn3)ccc21 | 
0.00346 µM | 8.74 µM | 10.9 µM | 12.6 µM | COc1cc2[nH]ncc2cc1-n1cc(CN[C@@H]2C[C@H]2c2ccc(F)c(F)c2)nn1 | 

— ChEMBL document CHEMBL6134819, “Discovery of novel tranylcypromine-indazole-based derivatives as LSD1 inhibitors for acute myeloid leukemia treatment” (Eur J Med Chem, 2025)
